Data: the supplement of paper PMC10307832

Tests used:
Assay in all cases: relative viability (nuclei count vs DMSO), 5 days (fraction); higher = more cells survive
Sulindac + Trametinib = compound: CC1=C(CC(=O)O)c2cc(F)ccc2/C1=C\c1ccc([S+](C)[O-])cc1 [Sulindac] + CC(=O)Nc1cccc(-n2c(=O)n(C3CC3)c(=O)c3c(Nc4ccc(I)cc4F)n(C)c(=O)c(C)c32)c1 [Trametinib] (partner 0.02 µM)
Outline: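 For relative viability, nuclei counts in treated wells were divided by those in vehicle wells. Lung cancer cell lines had been pin-tool dosed in 1536-well plates the day after seeding and cultured for 5 days, then fixed and stained in one step (final 0.05% Triton X-100, 1% formaldehyde, 1 ug/ml Hoechst) and imaged at 4×. Doses were one drug alone or a fixed anchor-drug dose plus five library-drug doses (not always all listed) in √10 steps, and values are duplicate-plate medians.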

Sulindac = compound: CC1=C(CC(=O)O)c2cc(F)ccc2/C1=C\c1ccc([S+](C)[O-])cc1 [Sulindac]
Outline: (§1)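 Hoechst staining, done together with fixation and permeabilisation, marked nuclei for 4× imaging and MetaXpress counting. This followed 5 days without medium change after lung cancer cell lines, kept overnight at 37 °C in 1536-well plates, were pinned with five library-drug doses (not always all listed) spaced by √10 on vehicle-anchored plates. Viability is the ratio of treated-well to vehicle-well nuclei, expressed as a median across plates. Plates passed only at control CV below 25% with at least one doubling.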

Staurosporine = compound: CN[C@@H]1C[C@H]2O[C@@](C)([C@@H]1OC)n1c3ccccc3c3c4c(c5c6ccccc6n2c5c31)C(=O)NC4 [Staurosporine]
Outline: as §1

5-Fluorouracil = compound: O=c1[nH]cc(F)c(=O)[nH]1 [5-Fluorouracil]
Outline: as §1

Cell Line	relative viability (Sulindac + Trametinib; first compound 0.08 µM)	relative viability (Sulindac + Trametinib; first compound 0.253 µM)	relative viability (Sulindac + Trametinib; first compound 0.8 µM)	relative viability (Sulindac + Trametinib; first compound 2.53 µM)	relative viability (Sulindac + Trametinib; first compound 8 µM)	relative viability (Sulindac; 0.08 µM)	relative viability (Sulindac; 0.253 µM)	relative viability (Sulindac; 0.8 µM)	relative viability (Sulindac; 2.53 µM)	relative viability (Sulindac; 8 µM)	relative viability (Staurosporine; 0.005 µM)	relative viability (Staurosporine; 0.01581 µM)	relative viability (Staurosporine; 0.05 µM)	relative viability (Staurosporine; 0.1581 µM)	relative viability (Staurosporine; 0.5 µM)	relative viability (5-Fluorouracil; 0.02 µM)	relative viability (5-Fluorouracil; 0.2 µM)	relative viability (5-Fluorouracil; 0.6325 µM)	relative viability (5-Fluorouracil; 2 µM)
PC-14	0.908	0.772	0.745	0.779	1.01	1.11	1.14	0.786	1.08	1.18	0.691	0.404	0.152	0.0788	0.0565	1.02	1.13	0.898	0.552
HARA	0.516	0.926	0.777	0.715	0.735	1.1	1.01	0.899	0.979	1.11	0.696	0.387	0.36	0.219	0.108	1.03	1.33	1	0.573
NCI-H23	0.39	0.403	0.333	0.364	0.356	1.19	0.802	0.701	0.799	1.15	0.704	0.139	0.367	0.164	0.117	1	1.13	0.601	0.387
LCLC-97TM1	0.25	0.228	0.213	0.171	0.214	1.05	1.04	0.925	0.813	1.17	1.02	0.282	0.27	0.265	0.212	0.988	1.07	0.729	0.533
LC-2-ad	1.02	1.01	0.769	0.928	0.915	1.19	1.03	0.845	0.978	1.1	0.929	0.256	0.381	0.17	0.129	0.987	0.946	0.53	0.298
NCI-H1666	0.895	0.889	0.775	0.924	0.93	0.906	0.978	0.886	0.982	1.08	0.7	0.68	0.557	0.484	0.373	1.04	0.683	0.503	0.479
EKVX	0.299	0.34	0.292	0.335	0.333	1.05	1.01	0.832	0.941	1.08	0.758	0.417	0.351	0.256	0.146	0.835	0.312		0.176
SW 1573	0.601	0.645	0.496	0.371	0.75	1.05	1.09	0.861	0.999	1.21	0.622	0.277	0.187	0.137	0.076	1.01	1.03	0.938	0.532
HCC-827	0.525	0.571	0.526	0.489	0.506	0.99	1.09	0.97	0.957	1.09	1.03	0.701	0.723	0.48	0.36	0.855	1.01	0.667	0.469
NCI-H727	0.362	0.414	0.378	0.417	0.35	0.963	0.923	0.741	0.9	1.01	0.736	0.554	0.381	0.345	0.22	0.925	1.19	0.846	0.774
CAL-12T	0.285	0.357	0.343	0.312	0.361	1.05	1.09	0.864	0.946	1.12	0.34	0.223		0.15	0.144	1.08	1.03	0.659	0.448
NCI-H1648	0.379	0.414		0.473	0.422	0.953	0.793	0.561	0.923	0.942	0.807	0.281	0.244	0.324	0.274	0.922	0.871	0.56	0.354
NCI-H522	0.628	0.75	0.547	0.747	0.734	0.911	1.19	0.834	0.912	1.14	1	0.686	0.782	0.501	0.437	1.03	1	0.83	0.855
IA-LM						0.835	1.07		1.02	1.01	0.46	0.177	0.17	0.107	0.0831	0.939	0.519	0.295	0.241
EPLC-272H	0.195		0.266	0.245	0.279	0.97	0.797	0.762	0.857	1.18	0.781	0.192	0.247	0.106	0.0993	0.732	0.706	0.397	0.262
A-427	0.685	0.709	0.732	0.673	0.848	1.16	1.01	0.894	1	1.15	0.799	0.236	0.337	0.146	0.139	0.939	1.03	0.9	0.575
NCI-H661	0.635	0.608	0.487	0.669	0.654	1.13	1.05	0.989	1	0.965	1.02	0.722	0.555	0.364	0.238	0.998	1.04	0.954	0.992
